Measured values: patent US8785457B2 (Cellzome Limited, priority 2009, dated 2014)

Legend:
[1] = target: T1, mTOR (Homo sapiens, UniProt P42345); test: mTOR kinobeads assay (competitive binding in Jurkat cell lysate, immunodetection); settings: kinobeads assay, Table 6; read-out: Inhibition values (IC50) mTOR
T1 construct: endogenous in cells; host or cells: Jurkat, clone E6-1 (ATCC TIB-152) cell lysate
How it was run: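 IC50 derived from dose-response curves of mTOR captured on immobilized phenylmorpholin-chromen beads, detected by antibody dot blot with infrared fluorescence.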

[2] = target: T2, PI3K delta (PI3 Kd) (Homo sapiens, UniProt O00329); test: kinobeads assay, PI3K delta; assay type: binding; settings: kinobeads assay, Table 6; read-out: Inhibition values (IC50) PI3Kd
T2 construct: endogenous in cells; host or cells: Jurkat, clone E6-1 (ATCC TIB-152) cell lysate
T2 sequence (O00329 whole entry): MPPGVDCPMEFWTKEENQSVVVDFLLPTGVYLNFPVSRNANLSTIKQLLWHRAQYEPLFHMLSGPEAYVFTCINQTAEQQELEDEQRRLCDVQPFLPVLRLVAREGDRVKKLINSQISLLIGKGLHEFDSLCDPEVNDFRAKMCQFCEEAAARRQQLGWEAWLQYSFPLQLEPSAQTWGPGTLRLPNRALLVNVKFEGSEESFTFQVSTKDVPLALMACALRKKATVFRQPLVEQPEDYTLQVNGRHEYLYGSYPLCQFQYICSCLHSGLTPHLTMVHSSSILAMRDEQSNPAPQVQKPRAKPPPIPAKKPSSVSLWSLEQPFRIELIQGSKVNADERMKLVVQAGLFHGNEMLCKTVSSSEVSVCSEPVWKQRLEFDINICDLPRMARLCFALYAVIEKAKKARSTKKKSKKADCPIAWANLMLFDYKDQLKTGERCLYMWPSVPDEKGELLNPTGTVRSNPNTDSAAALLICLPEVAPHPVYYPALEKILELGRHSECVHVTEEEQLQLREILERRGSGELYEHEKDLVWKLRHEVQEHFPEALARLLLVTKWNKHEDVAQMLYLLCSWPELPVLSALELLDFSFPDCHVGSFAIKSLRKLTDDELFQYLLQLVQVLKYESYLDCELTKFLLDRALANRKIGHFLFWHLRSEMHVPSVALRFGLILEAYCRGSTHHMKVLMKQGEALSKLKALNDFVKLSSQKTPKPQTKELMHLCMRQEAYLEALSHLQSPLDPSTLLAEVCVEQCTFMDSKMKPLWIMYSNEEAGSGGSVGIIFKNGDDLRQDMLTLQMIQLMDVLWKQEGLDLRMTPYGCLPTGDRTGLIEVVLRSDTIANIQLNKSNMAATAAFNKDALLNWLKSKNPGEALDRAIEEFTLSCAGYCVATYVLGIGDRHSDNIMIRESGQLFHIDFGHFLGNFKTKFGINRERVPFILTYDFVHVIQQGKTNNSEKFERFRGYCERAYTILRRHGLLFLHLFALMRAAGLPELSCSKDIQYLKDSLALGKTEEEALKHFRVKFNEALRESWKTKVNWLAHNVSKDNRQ
T2 sequence (P27986 whole entry partner): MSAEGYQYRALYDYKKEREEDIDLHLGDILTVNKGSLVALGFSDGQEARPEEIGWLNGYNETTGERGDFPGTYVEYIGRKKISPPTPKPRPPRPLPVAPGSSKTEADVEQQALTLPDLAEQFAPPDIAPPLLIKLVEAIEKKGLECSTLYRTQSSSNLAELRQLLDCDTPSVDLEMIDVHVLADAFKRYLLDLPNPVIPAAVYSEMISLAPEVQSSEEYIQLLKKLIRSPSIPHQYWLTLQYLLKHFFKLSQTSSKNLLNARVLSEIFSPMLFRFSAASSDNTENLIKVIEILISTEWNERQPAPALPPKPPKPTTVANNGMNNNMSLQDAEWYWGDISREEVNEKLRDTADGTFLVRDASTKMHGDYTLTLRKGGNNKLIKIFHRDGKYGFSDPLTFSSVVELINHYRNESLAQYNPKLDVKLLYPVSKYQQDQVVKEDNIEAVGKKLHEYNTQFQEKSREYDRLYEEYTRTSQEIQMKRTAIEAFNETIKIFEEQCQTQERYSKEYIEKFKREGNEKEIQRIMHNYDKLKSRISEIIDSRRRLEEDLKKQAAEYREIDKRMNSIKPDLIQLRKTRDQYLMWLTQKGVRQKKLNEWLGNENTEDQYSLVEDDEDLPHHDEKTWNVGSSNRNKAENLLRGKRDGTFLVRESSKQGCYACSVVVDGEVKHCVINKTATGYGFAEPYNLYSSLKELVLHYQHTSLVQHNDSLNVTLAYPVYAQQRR
How it was run: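 IC50 values came from dose-response curves after test compound (1:3 series) competed with an immobilized phenylmorpholin-chromen affinity matrix for kinases in Jurkat lysate at 5 mg/mL protein. Eluted captured DNA-PK and PI3Kδ were measured by specific-antibody dot blot and infrared imaging. Buffer was Tris pH 7.4, NP40, MgCl2, NaCl, vanadate, DTT, NaF.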

Structure (SMILES) | IC50 [1] | IC50 [2]
CCNC(=O)Nc1ccc(-c2nc3c(c(N4CCOC[C@@H]4C)n2)CN(CC(C)C)C3)cc1 [Example 66, (S)-1-ethyl-3-(4-(6-isobutyl-4-(3-methylmorpholino)-6,7-dihydro-5H-pyrrolo[3,4-d]pyrimidin-2-yl)phenyl)urea] | < 0.1 µM | > 10 µM
CCNC(=O)Nc1ccc(-c2nc3c(c(N4CCOC[C@@H]4C)n2)CCN(C)C3)c(F)c1 [Example 110, (S)-1-ethyl-3-(3-fluoro-4-(7-methyl-4-(3-methylmorpholino)-5,6,7,8-tetrahydropyrido[3,4-d]pyrimidin-2-yl)phenyl)urea] | 0.1 to 1 µM | > 10 µM
CCNC(=O)Nc1ccc(-c2nc3c(c(N4CCOCC4)n2)CN(C)C3)cc1 [Example 69, 1-Ethyl-3-(4-(6-methyl-4-morpholino-6,7-dihydro-5H-pyrrolo[3,4-d]pyrimidin-2-yl)phenyl)urea] | < 0.1 µM | > 10 µM
